The first assay deals with T1, calcium channel (Oryctolagus cuniculus, UniProt P15381).
T1 construct: from tissue; host or cells: rabbit heart membrane preparation
T1 sequence (P15381 whole entry, other chains not shown): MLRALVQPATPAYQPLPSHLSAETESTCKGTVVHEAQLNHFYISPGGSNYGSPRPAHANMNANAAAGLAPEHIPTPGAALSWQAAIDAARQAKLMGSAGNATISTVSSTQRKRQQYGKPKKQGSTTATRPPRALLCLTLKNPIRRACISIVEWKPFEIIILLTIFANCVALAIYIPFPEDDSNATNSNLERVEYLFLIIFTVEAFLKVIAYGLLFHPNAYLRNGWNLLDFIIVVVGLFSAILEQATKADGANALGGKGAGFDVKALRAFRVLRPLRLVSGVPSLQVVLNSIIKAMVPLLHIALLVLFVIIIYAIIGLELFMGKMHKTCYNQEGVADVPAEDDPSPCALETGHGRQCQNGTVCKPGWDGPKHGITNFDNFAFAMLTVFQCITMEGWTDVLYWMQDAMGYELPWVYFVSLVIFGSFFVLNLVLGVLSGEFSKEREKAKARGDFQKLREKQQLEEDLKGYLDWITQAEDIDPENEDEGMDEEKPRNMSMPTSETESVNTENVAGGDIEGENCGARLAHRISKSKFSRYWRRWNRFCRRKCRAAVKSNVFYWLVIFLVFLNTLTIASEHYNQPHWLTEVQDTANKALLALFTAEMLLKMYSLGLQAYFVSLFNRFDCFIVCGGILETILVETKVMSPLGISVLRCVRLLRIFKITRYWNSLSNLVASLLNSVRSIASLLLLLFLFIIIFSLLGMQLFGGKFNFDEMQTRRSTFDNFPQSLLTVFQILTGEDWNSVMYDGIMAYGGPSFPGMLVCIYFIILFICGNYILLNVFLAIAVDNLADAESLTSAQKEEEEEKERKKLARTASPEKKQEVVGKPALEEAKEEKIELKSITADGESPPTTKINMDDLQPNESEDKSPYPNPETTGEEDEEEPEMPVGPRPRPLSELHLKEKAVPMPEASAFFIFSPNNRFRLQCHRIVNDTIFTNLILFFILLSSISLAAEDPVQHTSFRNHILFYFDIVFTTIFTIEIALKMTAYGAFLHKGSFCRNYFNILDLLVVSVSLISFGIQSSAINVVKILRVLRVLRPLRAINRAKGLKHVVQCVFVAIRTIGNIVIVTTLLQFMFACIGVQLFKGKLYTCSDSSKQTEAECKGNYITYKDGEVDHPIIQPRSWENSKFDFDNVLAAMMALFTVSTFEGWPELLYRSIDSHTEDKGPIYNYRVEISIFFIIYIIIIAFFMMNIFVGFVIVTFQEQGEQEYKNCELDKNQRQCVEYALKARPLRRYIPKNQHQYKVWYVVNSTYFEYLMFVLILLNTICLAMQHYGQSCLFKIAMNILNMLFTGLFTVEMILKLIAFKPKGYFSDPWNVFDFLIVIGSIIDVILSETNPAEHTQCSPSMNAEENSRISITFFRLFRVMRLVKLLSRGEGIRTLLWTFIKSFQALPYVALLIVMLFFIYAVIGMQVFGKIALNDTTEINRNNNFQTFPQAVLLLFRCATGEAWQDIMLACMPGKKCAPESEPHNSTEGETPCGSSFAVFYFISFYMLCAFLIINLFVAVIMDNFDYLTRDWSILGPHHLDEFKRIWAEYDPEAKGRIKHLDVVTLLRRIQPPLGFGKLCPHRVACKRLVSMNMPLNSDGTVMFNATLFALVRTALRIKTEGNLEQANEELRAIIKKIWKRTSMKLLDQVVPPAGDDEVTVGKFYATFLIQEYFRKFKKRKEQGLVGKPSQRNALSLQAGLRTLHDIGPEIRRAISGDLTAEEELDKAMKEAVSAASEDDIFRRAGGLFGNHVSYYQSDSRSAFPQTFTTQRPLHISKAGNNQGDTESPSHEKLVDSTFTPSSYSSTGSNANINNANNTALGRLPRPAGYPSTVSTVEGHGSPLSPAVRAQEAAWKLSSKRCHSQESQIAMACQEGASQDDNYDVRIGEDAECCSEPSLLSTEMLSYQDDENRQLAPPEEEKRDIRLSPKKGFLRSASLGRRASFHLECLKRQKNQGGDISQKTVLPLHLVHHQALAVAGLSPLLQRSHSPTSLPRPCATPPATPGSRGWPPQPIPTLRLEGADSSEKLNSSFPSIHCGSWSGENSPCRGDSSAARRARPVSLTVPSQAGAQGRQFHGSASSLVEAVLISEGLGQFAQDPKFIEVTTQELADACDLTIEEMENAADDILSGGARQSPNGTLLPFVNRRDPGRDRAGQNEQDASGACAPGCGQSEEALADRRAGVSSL
T1 sequence (P13806 27-960 partner limits assumed, other chains not shown): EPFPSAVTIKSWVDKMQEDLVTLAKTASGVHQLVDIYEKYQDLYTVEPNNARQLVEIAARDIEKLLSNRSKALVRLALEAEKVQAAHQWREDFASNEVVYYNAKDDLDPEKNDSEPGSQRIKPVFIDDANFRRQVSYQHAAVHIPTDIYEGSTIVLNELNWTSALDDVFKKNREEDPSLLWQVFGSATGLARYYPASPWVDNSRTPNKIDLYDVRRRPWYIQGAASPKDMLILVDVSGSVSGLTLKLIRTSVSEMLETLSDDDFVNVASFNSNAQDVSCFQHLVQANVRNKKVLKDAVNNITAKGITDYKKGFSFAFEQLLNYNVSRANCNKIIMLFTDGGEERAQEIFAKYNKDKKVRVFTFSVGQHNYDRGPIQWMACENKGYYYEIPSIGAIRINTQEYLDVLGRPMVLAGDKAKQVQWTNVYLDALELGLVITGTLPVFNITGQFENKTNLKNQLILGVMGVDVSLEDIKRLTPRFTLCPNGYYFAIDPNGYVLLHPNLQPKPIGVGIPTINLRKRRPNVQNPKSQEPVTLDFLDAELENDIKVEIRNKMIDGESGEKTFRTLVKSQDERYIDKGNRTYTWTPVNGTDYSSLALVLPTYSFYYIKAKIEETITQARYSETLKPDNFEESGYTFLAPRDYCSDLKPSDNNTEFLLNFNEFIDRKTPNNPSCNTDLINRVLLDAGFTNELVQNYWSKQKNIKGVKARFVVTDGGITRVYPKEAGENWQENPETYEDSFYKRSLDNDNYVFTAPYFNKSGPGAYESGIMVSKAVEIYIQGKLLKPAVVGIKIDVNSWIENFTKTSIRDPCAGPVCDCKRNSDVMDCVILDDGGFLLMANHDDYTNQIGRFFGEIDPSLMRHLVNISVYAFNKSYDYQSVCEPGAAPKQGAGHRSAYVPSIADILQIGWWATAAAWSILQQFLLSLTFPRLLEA
T1 sequence (P13806 961-1106 partner limits assumed, other chains not shown): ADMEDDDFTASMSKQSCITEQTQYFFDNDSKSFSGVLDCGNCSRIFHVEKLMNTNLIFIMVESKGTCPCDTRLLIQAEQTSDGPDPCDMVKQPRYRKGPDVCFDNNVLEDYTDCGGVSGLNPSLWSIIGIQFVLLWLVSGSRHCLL
The experiment in a line: Assay for Inhibition of Nitrendipine Binding (3H-nitrendipine, heart membranes). Details: species or system rabbit.
Conditions: not given
How it is done: Assay for Inhibition of Nitrendipine Binding
Female, New Zealand white rabbits (1-2 kg) are sacrificed by cervical dislocation, and the heart is immediately removed, cleaned and chopped into small pieces. The tissue is homogenized in 5×times volume of 0.05M Hepes buffer, pH 7.4. The homogenate is centrifuged at 4000 g for 10 minutes, and the supernatant is re-centrifuged at 42,000×g for 90 minutes. The resulting membrane pellet is resuspended (0.7 ml/g weight) in 0.05M Hepes, pH 7.4 and stored at […] until used. Each tube of the binding assay contains ^3H-nitrendipine (0.05-0.50 nM), buffer, membranes (0.10 ml), and test compound in a total volume of 1.0 ml. After 90 minutes at 4° C., the bound nitrendipine is separated from the unbound by filtration on Whatman GF/C filters. After rinsing, the filters are dried and counted in a liquid scintillation counter.
Non-specific binding of ^3H-nitrendipine (that amount bound in the presence of excess unlabelled nitrendipine) is subtracted from the total bound to obtain specifically bound radiolabeled nitrendipine. The amount of specifically bound nitrendipine in the presence of a test compound is compared to that amount bound in the absence of a compound. A percent displacement (or inhibition) can then be calculated.
As for `CC1=C(C(=O)OCCOC(=O)Cc2ccccc2)C(c2c(F)cccc2Cl)C2=C(CS(=O)(=O)c3ccccc3S2(=O)=O)N1` (stereo not shown) [Compound 30], the IC50 is 110 nM.

The assay is the same for the next values; noted with them: Table 2, compounds of Formula II; 3H-nitrendipine displacement, rabbit heart membranes; read-out: Nitrendipine Binding IC50.
`CC1=C(C(=O)OCCO)C(c2c(F)cccc2Cl)C2=C(C[S+]([O-])c3ccccc3S2(=O)=O)N1` (stereo not shown) [Compound 20]: the IC50 is 306 nM.
Take `CC1=C(C(=O)OCCO)C(c2c(F)cccc2Cl)C2=C(CS(=O)(=O)c3ccccc3S2(=O)=O)N1` (stereo not shown) [Compound 21]: the IC50 amounted to 6070 nM.
Still for that read-out and setting: the same measure for `CC(=O)OCCOC(=O)C1=C(C)NC2=C(C1c1c(F)cccc1Cl)S(=O)(=O)c1ccccc1S(=O)(=O)C2` (stereo not shown) [Compound 22, 1H-[1,5]benzodithiepino[3,2-b]pyridine-3-carboxylic acid, 4-(2-chloro-6-fluorophenyl)-4,11-dihydro-2-methyl-, 2-(acetyloxy)ethyl ester, 5,5,10,10-tetraoxide]: 180 nM; for `CC1=C(C(=O)OCCOC(=O)c2ccccc2)C(c2c(F)cccc2Cl)C2=C(CS(=O)(=O)c3ccccc3S2(=O)=O)N1` (stereo not shown) [Compound 23, 1H-[1,5]benzodithiepino[3,2-b]pyridine-3-carboxylic acid, 4-(2-chloro-6-fluorophenyl)-4,11-dihydro-2-methyl-, 2-(benzoyloxy)ethyl ester, 5,5,10,10-tetraoxide]: 30 nM.
On the same count and under the same terms, next, `CC1=C(C(=O)OCCOC(=O)C2CCCCC2)C(c2c(F)cccc2Cl)C2=C(CS(=O)(=O)c3ccccc3S2(=O)=O)N1` (stereo not shown) [Compound 24, 1H-[1,5]benzodithiepino[3,2-b]pyridine-3-carboxylic acid, 4-(2-chloro-6-fluorophenyl)-4,11-dihydro-2-methyl-, 2-[(cyclohexylcarbonyl)oxy]ethyl ester, 5,5,10,10-tetraoxide]: 43 nM.
On the same count and under the same terms, next, `CC1=C(C(=O)OCCNC(=O)OC(C)(C)C)C(c2c(F)cccc2Cl)C2=C(CS(=O)(=O)c3ccccc3S2(=O)=O)N1` (stereo not shown) [Compound 25, 1H-[1,5]benzodithiepino[3,2-b]pyridine-3-carboxylic acid, 4-(2-chloro-6-fluorophenyl)-4,11-dihydro-2-methyl-, 2-[[(1,1-dimethylethoxy)carbonyl]amino]ethyl ester, 5,5,10,10-tetraoxide]: 420 nM.
With `CC1=C(C(=O)OCCN)C(c2c(F)cccc2Cl)C2=C(CS(=O)(=O)c3ccccc3S2(=O)=O)N1` (stereo not shown) [Compound 26, 1H-[1,5]benzodithiepino[3,2-b]pyridine-3-carboxylic acid, 4-(2-chloro-6-fluorophenyl)-4,11-dihydro-2-methyl-, 2-aminoethyl ester, 5,5,10,10-tetraoxide], the half-inhibitory concentration (IC50) amounted to 2000 nM.
The same measure, in the same setting: next, `CC1=C(C(=O)OCCOC(=O)C(C)C)C(c2c(F)cccc2Cl)C2=C(CS(=O)(=O)c3ccccc3S2(=O)=O)N1` (stereo not shown) [Compound 27]: 26 nM.
Still for that read-out and setting: next, `CC1=C(C(=O)OCCOC(=O)C(C)(C)C)C(c2c(F)cccc2Cl)C2=C(CS(=O)(=O)c3ccccc3S2(=O)=O)N1` (stereo not shown) [Compound 28, 1H-[1,5]benzodithiepino[3,2-b]pyridine-3-carboxylic acid, 4-(2-chloro-6-fluorophenyl)-4,11-dihydro-2-methyl-, 2-(2,2-dimethyl-1-oxopropoxy)ethyl ester, 5,5,10,10-tetraoxide]: 370 nM.
On the same count and under the same terms, the same measure for `CC1=C(C(=O)OCCNC(=O)c2ccccc2)C(c2c(F)cccc2Cl)C2=C(CS(=O)(=O)c3ccccc3S2(=O)=O)N1` (stereo not shown) [Compound 29, 1H-[1,5]benzodithiepino[3,2-b]pyridine-3-carboxylic acid, 4-(2-chloro-6-fluorophenyl)-4,11-dihydro-2-methyl-, 2-(benzoylamino)ethyl ester, 5,5,10,10-tetraoxide]: 859 nM; for `COc1ccc2cc([C@H](C)C(=O)OCCOC(=O)C3=C(C)NC4=C(C3c3c(F)cccc3Cl)S(=O)(=O)c3ccccc3S(=O)(=O)C4)ccc2c1` (stereo partly drawn) [Compound 31, 1H-[1,5]benzodithiepino[3,2-b]pyridine-3-carboxylic acid, 4-(2-chloro-6-fluorophenyl)-4,11-dihydro-2-methyl-, 2-[[(2S)-2-(6-methoxy-2-naphthalenyl)-1-oxopropyl]oxy]ethyl ester, 5,5,10,10-tetraoxide]: 209 nM.
As for `CC1=C(C(=O)OCCOC(=O)C(C)c2ccc(CC(C)C)cc2)C(c2c(F)cccc2Cl)C2=C(CS(=O)(=O)c3ccccc3S2(=O)=O)N1` (stereo not shown) [Compound 32], the IC50 came to 618 nM.
On the same count and under the same terms, the same measure for `CC1=C(C(=O)OCCCO)C(c2c(F)cccc2Cl)C2=C(CS(=O)(=O)c3ccccc3S2(=O)=O)N1` (stereo not shown) [Compound 33]: 1440 nM; for `CC1=C(C(=O)OCCCOC(=O)c2ccccc2)C(c2c(F)cccc2Cl)C2=C(CS(=O)(=O)c3ccccc3S2(=O)=O)N1` (stereo not shown) [Compound 34]: 188 nM.
The same measure, in the same setting: the same measure for `CC1=C(C(=O)OCCOC(=O)CCCCCCc2ccccc2)C(c2c(F)cccc2Cl)C2=C(CS(=O)(=O)c3ccccc3S2(=O)=O)N1` (stereo not shown) [Compound 35]: 60 nM.
On the same count and under the same terms, next, `CC1=C(C(=O)OCCOC(=O)CCCCCCCCCc2ccccc2)C(c2c(F)cccc2Cl)C2=C(CS(=O)(=O)c3ccccc3S2(=O)=O)N1` (stereo not shown) [Compound 36]: 116000 nM.
Take `CC1=C(C(=O)OCCOC(=O)/C=C/c2ccccc2)C(c2c(F)cccc2Cl)C2=C(CS(=O)(=O)c3ccccc3S2(=O)=O)N1` (stereo not shown) [Compound 37, 1H-[1,5]benzodithiepino[3,2-b]pyridine-3-carboxylic acid, 4-(2-chloro-6-fluorophenyl)-4,11-dihydro-2-methyl-, 2-[[(2E)-1-oxo-3-phenyl-2-propenyl]oxy]ethyl ester, 5,5,10,10-tetraoxide]: the half-inhibitory concentration (IC50) was 101 nM.
In the case of `CC1=C(C(=O)OCc2oc(=O)oc2-c2ccccc2)C(c2c(F)cccc2Cl)C2=C(CS(=O)(=O)c3ccccc3S2(=O)=O)N1` (stereo not shown) [Compound 40], the half-inhibitory concentration (IC50) is 11 nM.

The values are drawn from US6472530B1, “Benzo-fused dithiepino[6,5-b]pyridines, and related compositions and methods” (Ortho-McNeil Pharmaceutical, Inc., priority 1999, dated 2002).
